From patent publication US20260028365A1 (BIOGEN MA INC., priority 2022, published 2026)
Like-named read-outs stand apart in the source and are kept apart here.

Key:
JH2 domain of human Tyk2 = JH2 domain of human Tyk2 (Homo sapiens (Human), UniProt P29597); assay: JH2 Biochemical Assay (TR-FRET probe displacement); assay type: binding
Method: The inhibitory potency of compounds of the disclosure against the kinase activity of recombinantly generated JH2 domain of human Tyk2 was evaluated in a plate-based assay using a TR-FRET assay platform. Briefly, 2 nM of recombinant JH2 domain [10×His-tagged TYK2 JH2 domain (amino acid 575-876)] was combined with 2 nM probe ((S)-6-amino-9-(2-carboxy-4-((1-(3-(8-methyl-5-(methylamino)-8H-imidazo[4,5-d]thiazolo[5,4-b]pyridin-2-yl)phenyl)ethyl)carbamoyl)phenyl)-3-iminio-5-sulfo-3H-xanthene-4-sulfonate), 0.1 nM Tb-labeled anti-His antibody, and compounds of disclosure for 60 minutes. Compounds are tested at either 10 μM or 1 μM top concentration, 10 points of 3-fold dilution. The TR-FRET signal inversely correlates to the amount of probe displaced by compounds and signal was calculated by taking the ratio of fluorescence at 520 nm and 495 nm. The data was normalized and the percent activity versus log concentration of compound was fitted with a 4-parameter logistic model to generate IC50 curves.

Tyk2 = Tyk2 (Homo sapiens (Human), UniProt P29597); assay: pSTAT4 Cell Assay (MSD, NK92 cells); assay type: cell-based
[1] = JH2 domain of human Tyk2, TR-FRET probe displacement
[2] = TR-FRET probe displacement, JH2 domain
[3] = TR-FRET probe displacement, JH2 domain of human Tyk2

JH2 domain of human Tyk2, sequence (P29597 575-876): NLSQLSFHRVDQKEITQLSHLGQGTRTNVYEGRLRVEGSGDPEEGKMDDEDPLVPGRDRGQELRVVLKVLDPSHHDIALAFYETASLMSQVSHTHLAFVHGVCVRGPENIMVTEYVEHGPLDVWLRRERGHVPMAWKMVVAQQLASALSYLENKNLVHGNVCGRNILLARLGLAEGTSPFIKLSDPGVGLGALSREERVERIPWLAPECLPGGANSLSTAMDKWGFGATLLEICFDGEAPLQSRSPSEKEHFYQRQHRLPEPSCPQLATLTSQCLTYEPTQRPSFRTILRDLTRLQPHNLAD
Tyk2, sequence (P29597 whole entry, the tested form may be a part): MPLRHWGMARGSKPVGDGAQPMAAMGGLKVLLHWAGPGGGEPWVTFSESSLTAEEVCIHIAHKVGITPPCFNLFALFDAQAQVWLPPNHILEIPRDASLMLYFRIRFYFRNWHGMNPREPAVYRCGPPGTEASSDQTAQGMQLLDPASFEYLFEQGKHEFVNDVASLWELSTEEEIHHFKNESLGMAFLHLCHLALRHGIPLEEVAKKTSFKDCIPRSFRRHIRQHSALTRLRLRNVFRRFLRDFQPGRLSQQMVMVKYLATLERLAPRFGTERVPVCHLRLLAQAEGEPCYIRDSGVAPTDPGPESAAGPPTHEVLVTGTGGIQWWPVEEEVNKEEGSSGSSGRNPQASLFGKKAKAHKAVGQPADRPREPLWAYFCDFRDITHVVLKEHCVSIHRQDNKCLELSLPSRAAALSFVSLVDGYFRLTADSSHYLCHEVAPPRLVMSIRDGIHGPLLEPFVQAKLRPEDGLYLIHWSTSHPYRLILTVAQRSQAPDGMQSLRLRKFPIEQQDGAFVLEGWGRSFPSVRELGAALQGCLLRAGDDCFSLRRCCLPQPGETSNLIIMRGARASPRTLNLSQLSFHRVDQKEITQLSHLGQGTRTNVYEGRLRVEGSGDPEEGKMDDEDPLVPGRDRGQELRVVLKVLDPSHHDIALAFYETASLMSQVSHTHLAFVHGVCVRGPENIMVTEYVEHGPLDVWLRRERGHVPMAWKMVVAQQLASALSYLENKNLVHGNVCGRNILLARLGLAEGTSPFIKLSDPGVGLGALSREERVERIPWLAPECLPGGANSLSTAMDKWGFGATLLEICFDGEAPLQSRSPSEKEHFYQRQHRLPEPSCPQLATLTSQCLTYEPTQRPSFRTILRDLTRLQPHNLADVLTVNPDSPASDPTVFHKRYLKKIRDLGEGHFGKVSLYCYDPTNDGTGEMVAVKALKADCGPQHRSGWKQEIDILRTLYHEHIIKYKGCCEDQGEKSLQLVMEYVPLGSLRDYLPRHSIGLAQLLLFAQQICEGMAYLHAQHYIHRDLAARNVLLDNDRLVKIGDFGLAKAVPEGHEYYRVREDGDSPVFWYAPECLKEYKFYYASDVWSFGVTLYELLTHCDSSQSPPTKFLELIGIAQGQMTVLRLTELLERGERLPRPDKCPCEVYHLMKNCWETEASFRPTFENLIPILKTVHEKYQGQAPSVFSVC

Structure (SMILES) | IC50 (JH2 domain of human Tyk2; [1]) | IC50 (Tyk2; MSD) | IC50 (JH2 domain of human Tyk2; [2]) | IC50 (Tyk2) | IC50 (JH2 domain of human Tyk2; [3])
CCOc1cnc(NC(C)=O)cc1Nc1cc(C)nc(C2CC2(C)C)n1 (racemic) [Example 518, rac-(R)-N-(4-((2-(2,2-dimethylcyclopropyl)-6-methylpyrimidin-4-yl)amino)-5-ethoxypyridin-2-yl)acetamide] | ≤ 10 nM | 100 to 1000 nM |  |  | 
CC(=O)Nc1cc(Nc2cc(C)nc(C(C)(F)F)n2)c(-c2cccc(C(C)O)n2)cn1 (racemic) [Example 638, rac-(R)-N-(4′-((2-(1,1-difluoroethyl)-6-methylpyrimidin-4-yl)amino)-6-(1-hydroxyethyl)-[2,3′-bipyridin]-6′-yl)acetamide] | ≤ 10 nM | ≤ 10 nM |  |  | 
COC1CCN(c2ccc(-c3cnc(NC(C)=O)cc3Nc3ccnc(C(C)(F)F)n3)nn2)C1 (racemic) [Example 873, rac-(R)-N-(4-((2-(1,1-difluoroethyl)pyrimidin-4-yl)amino)-5-(6-(3-methoxypyrrolidin-1-yl)pyridazin-3-yl)pyridin-2-yl)acetamide] |  |  | ≤ 10 nM | ≤ 10 nM | 
CC(=O)Nc1cc(Nc2ccnc(C(C)(F)F)n2)c(-c2ccc(CN3C[C@H]4C[C@@H]3CO4)cn2)cn1 (racemic) [Example 884, rac-N-(5-(((1R,4R)-2-oxa-5-azabicyclo[2.2.1]heptan-5-yl)methyl)-4′-((2-(1,1-difluoroethyl)pyrimidin-4-yl)amino)-[2,3′-bipyridin]-6′-yl)acetamide] |  |  | ≤ 10 nM | ≤ 10 nM | 
CC(=O)Nc1cc(Nc2cc(C)nc(C(C)(F)F)n2)c([C@@H]2C[C@@H]2C#N)cn1 (relative stereo) [Example 810, rel-N-(5-((1R,2S)-2-cyanocyclopropyl)-4-((2-(1,1-difluoroethyl)-6-methylpyrimidin-4-yl)amino)pyridin-2-yl)acetamide] |  |  | 10 to 100 nM | ≥ 1000 nM | 
CC(=O)Nc1cc(Nc2cc(C)nc(C(C)(F)F)n2)c([C@H]2CCCO2)cn1 (single isomer, unassigned) [Example 278, (R)-N-(4-((2-(1,1-difluoroethyl)-6-methylpyrimidin-4-yl)amino)-5-(tetrahydrofuran-2-yl)pyridin-2-yl)acetamide or (S)—N-(4-((2-(1,1-difluoroethyl)-6-methylpyrimidin-4-yl)amino)-5-(tetrahydrofuran-2-yl)pyridin-2-yl)acetamide] |  | ≥ 1000 nM |  |  | 10 to 100 nM
CC(=O)Nc1cc(Nc2cc(C)nc(C(C)(F)F)n2)c([C@@H]2CCCO2)cn1 (single isomer, unassigned) [Example 279, (S)—N-(4-((2-(1,1-difluoroethyl)-6-methylpyrimidin-4-yl)amino)-5-(tetrahydrofuran-2-yl)pyridin-2-yl)acetamide or (R)-N-(4-((2-(1,1-difluoroethyl)-6-methylpyrimidin-4-yl)amino)-5-(tetrahydrofuran-2-yl)pyridin-2-yl)acetamide] |  | 100 to 1000 nM |  |  | 10 to 100 nM
CC(=O)Nc1cc(Nc2cc(C)nc(C(C)(F)F)n2)c(OC[C@@H]2CCCO2)cn1 (single isomer, unassigned) [Example 293, (S)-N-(4-((2-(1,1-difluoroethyl)-6-methylpyrimidin-4-yl)amino)-5-((tetrahydrofuran-2-yl)methoxy)pyridin-2-yl)acetamide or (R)-N-(4-((2-(1,1-difluoroethyl)-6-methylpyrimidin-4-yl)amino)-5-((tetrahydrofuran-2-yl)methoxy)pyridin-2-yl)acetamide] |  | 10 to 100 nM |  |  | ≤ 10 nM
CC(=O)Nc1cc(Nc2cc(C)nc(C(C)(F)F)n2)c(-c2cccc([C@@H]3CN(C)CCO3)n2)cn1 (single isomer, unassigned) [Example 641, (S)-N-(4′-((2-(1,1-difluoroethyl)-6-methylpyrimidin-4-yl)amino)-6-(4-methylmorpholin-2-yl)-[2,3′-bipyridin]-6′-yl)acetamide or (R)-N-(4′-((2-(1,1-difluoroethyl)-6-methylpyrimidin-4-yl)amino)-6-(4-methylmorpholin-2-yl)-[2,3′-bipyridin]-6′-yl)acetamide] | ≤ 10 nM | ≤ 10 nM |  |  | 
CC(=O)Nc1cc(Nc2cc(C)nc(C(C)(F)F)n2)c(-c2ccc([C@@H]3CN(C)CCO3)cn2)cn1 (single isomer, unassigned) [Example 643, (R)-N-(4′-((2-(1,1-difluoroethyl)-6-methylpyrimidin-4-yl)amino)-5-(4-methylmorpholin-2-yl)-[2,3′-bipyridin]-6′-yl)acetamide or (S)-N-(4′-((2-(1,1-difluoroethyl)-6-methylpyrimidin-4-yl)amino)-5-(4-methylmorpholin-2-yl)-[2,3′-bipyridin]-6′-yl)acetamide] | ≤ 10 nM | ≤ 10 nM |  |  | 
CC(=O)Nc1cc(Nc2cc(C)nc(C(C)(F)F)n2)c(-c2ccc([C@H]3CN(C)CCO3)cn2)cn1 (single isomer, unassigned) [Example 644, (S)-N-(4′-((2-(1,1-difluoroethyl)-6-methylpyrimidin-4-yl)amino)-5-(4-methylmorpholin-2-yl)-[2,3′-bipyridin]-6′-yl)acetamide or (R)-N-(4′-((2-(1,1-difluoroethyl)-6-methylpyrimidin-4-yl)amino)-5-(4-methylmorpholin-2-yl)-[2,3′-bipyridin]-6′-yl)acetamide] | ≤ 10 nM | ≤ 10 nM |  |  | 
CC(=O)Nc1cc(Nc2cc(C)nc(C(C)(F)F)n2)c(OC[C@H]2CCC[C@@H](C)O2)cn1 (stereo in doubt) [Example 418, Cis-rac-N-(4-((2-(1,1-difluoroethyl)-6-methylpyrimidin-4-yl)amino)-5-(((2R,6R)-6-methyltetrahydro-2H-pyran-2-yl)methoxy)pyridin-2-yl)acetamide] | ≤ 10 nM | ≤ 10 nM |  |  | 
CC(=O)Nc1cc(Nc2cc(C)nc(C(C)(F)F)n2)c(OC[C@@H]2CCC[C@H](C)O2)cn1 (stereo in doubt) [Example 442, Cis-rac-N-(4-((2-(1,1-difluoroethyl)-6-methylpyrimidin-4-yl)amino)-5-((6-methyltetrahydro-2H-pyran-2-yl)methoxy)pyridin-2-yl)acetamide] | 10 to 100 nM | 10 to 100 nM |  |  | 
CCOc1cnc(NC(C)=O)cc1Nc1cc(C(C)(F)F)ccn1 [Example 2, N-(4-((4-(1,1-difluoroethyl)pyridin-2-yl)amino)-5-ethoxypyridin-2-yl)acetamide] |  | ≥ 1000 nM |  |  | 10 to 100 nM
CC(=O)Nc1cc(Nc2ccnc(C(C)(F)F)n2)c(OC(C)C)cn1 [Example 8, N-(4-((2-(1,1-difluoroethyl)pyrimidin-4-yl)amino)-5-isopropoxypyridin-2-yl)acetamide] |  | 100 to 1000 nM |  |  | ≤ 10 nM
CCOc1cnc(NC(=O)CC)cc1Nc1cc(C)nc(C(C)(F)F)n1 [Example 9, N-(4-((2-(1,1-difluoroethyl)-6-methylpyrimidin-4-yl)amino)-5-ethoxypyridin-2-yl)propionamide] |  | 10 to 100 nM |  |  | ≤ 10 nM
CCOc1cnc(NC(C)=O)cc1Nc1cc(O[C@H]2C[C@@H](OC)C2)cc(C(C)(F)F)n1 [Example 15, N-(4-((6-(1,1-difluoroethyl)-4-((1s,3s)-3-methoxycyclobutoxy)pyridin-2-yl)amino)-5-ethoxypyridin-2-yl)acetamide] |  | 10 to 100 nM |  |  | ≤ 10 nM
COc1cc(Nc2cc(NC(C)=O)ncc2OC)nc(C(C)(F)F)n1 [Example 18, N-(4-((2-(1,1-difluoroethyl)-6-methoxypyrimidin-4-yl)amino)-5-methoxypyridin-2-yl)acetamide] |  | 10 to 100 nM |  |  | ≤ 10 nM
CC(=O)Nc1cc(Nc2cc(C)nc(C(C)(F)F)n2)c(OCC(F)(F)F)cn1 [Example 23, N-(4-((2-(1,1-difluoroethyl)-6-methylpyrimidin-4-yl)amino)-5-(2,2,2-trifluoroethoxy)pyridin-2-yl)acetamide] |  | 100 to 1000 nM |  |  | ≤ 10 nM
CC(=O)Nc1cc(Nc2cc(C)nc(C(C)(F)F)n2)c(OCC(F)F)cn1 [Example 24, N-(5-(2,2-difluoroethoxy)-4-((2-(1,1-difluoroethyl)-6-methylpyrimidin-4-yl)amino)pyridin-2-yl)acetamide] |  | 10 to 100 nM |  |  | ≤ 10 nM
CC(=O)Nc1cc(Nc2cc(C)nc(C(C)(F)F)n2)c(OCCN(C)C)cn1 [Example 25, N-(4-((2-(1,1-difluoroethyl)-6-methylpyrimidin-4-yl)amino)-5-(2-(dimethylamino)ethoxy)pyridin-2-yl)acetamide] |  | 10 to 100 nM |  |  | ≤ 10 nM
CCOc1cnc(NC(=O)COC)cc1Nc1cc(C)nc(C(C)(F)F)n1 [Example 26, N-(4-((2-(1,1-difluoroethyl)-6-methylpyrimidin-4-yl)amino)-5-ethoxypyridin-2-yl)-2-methoxyacetamide] |  | 10 to 100 nM |  |  | ≤ 10 nM
CCOc1cnc(NC(=O)CCOC)cc1Nc1cc(C)nc(C(C)(F)F)n1 [Example 27, N-(4-((2-(1,1-difluoroethyl)-6-methylpyrimidin-4-yl)amino)-5-ethoxypyridin-2-yl)-3-methoxypropanamide] |  | 100 to 1000 nM |  |  | ≤ 10 nM
CC(=O)Nc1cc(Nc2cc(C)nc(C(C)(F)F)n2)c(OCc2ccccc2)cn1 [Example 30, N-(5-(benzyloxy)-4-((2-(1,1-difluoroethyl)-6-methylpyrimidin-4-yl)amino)pyridin-2-yl)acetamide] |  | ≤ 10 nM |  |  | ≤ 10 nM
